Assay results from PubChem BioAssay (NCI).
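These data come from cells grown in 96-well plates and exposed to compound for 48 hours at five concentrations. TGI denotes the concentration required for complete inhibition of growth.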

How the values were obtained:
Experiment in all cases: inhibition of tumour cell growth, NCI panel, 48 h
MDA-MB-231 breast = test system: MDA-MB-231 breast
MDA-N = test system: MDA-N
HCT-116 colon = test system: HCT-116 colon
LOX IMVI melanoma = test system: LOX IMVI melanoma
CAKI-1 renal = test system: CAKI-1 renal
CCRF-CEM leukemia = test system: CCRF-CEM leukemia
OVCAR-5 ovarian = test system: OVCAR-5 ovarian
NCI/ADR-RES ovarian = test system: NCI/ADR-RES ovarian
NCI-H226 lung = test system: NCI-H226 lung
SNB-19 CNS = test system: SNB-19 CNS
KM12 colon = test system: KM12 colon
PC-3 prostate = test system: PC-3 prostate
SR leukemia = test system: SR leukemia
SF-268 CNS = test system: SF-268 CNS
HS 578T breast = test system: HS 578T breast
A498 renal = test system: A498 renal

Row | SMILES | TGI (MDA-MB-231 breast) [µM] | TGI (MDA-N) [µM] | TGI (HCT-116 colon) [µM] | TGI (LOX IMVI melanoma) [µM] | TGI (CAKI-1 renal) [µM] | TGI (CCRF-CEM leukemia) [µM] | TGI (OVCAR-5 ovarian) [µM] | TGI (NCI/ADR-RES ovarian) [µM] | TGI (NCI-H226 lung) [µM] | TGI (SNB-19 CNS) [µM] | TGI (KM12 colon) [µM] | TGI (PC-3 prostate) [µM] | TGI (SR leukemia) [µM] | TGI (SF-268 CNS) [µM] | TGI (HS 578T breast) [µM] | TGI (A498 renal) [µM]
1 | CNc1nc(=O)c(C#N)c(-c2ccc(C)cc2)s1 | > 100 | > 100 | > 100 | > 100 | > 100 | > 100 | > 100 | > 100 | > 100 | > 100 | > 100 | > 100 | > 100 | – | – | –
2 | CCCCCCCCCCCCCCCCCCNC(=S)/N=C/c1c(O)cc(C)oc1=O | > 100 | > 100 | > 100 | > 100 | 64.1 | – | 37.3 | > 100 | > 100 | 52.1 | 36.3 | 69.8 | – | – | – | –
3 | CN1CCN(CCCCNc2cc3c4ccccc4c(NCCCCN4CCN(C)CC4)cc3c3ccccc23)CC1 | 2.89 | 0.977 | 2.13 | 2.42 | 25.6 | 3.07 | 12.5 | 21.6 | 45.4 | 12.5 | 3.06 | 21.2 | – | 8.04 | 5.65 | 28.5
4 | N#CCCCCC12C3C(=O)N(c4ccccc4)C(=O)C3ON1O[C@@H]1C(=O)N(c3ccccc3)C(=O)[C@@H]12 (stereo not given in full) | > 100 | > 100 | – | > 100 | > 100 | > 100 | > 100 | > 100 | > 100 | > 100 | > 100 | > 100 | – | > 100 | > 100 | > 100
5 | CC(C(O)c1ccccc1)[N+](=O)[O-] (stereo not given) | 59.2 | – | > 100 | 6.02 | 30.6 | > 100 | 65.6 | 93.1 | 48.3 | 66 | 50.6 | 45.3 | 9.82 | 95.5 | 98.7 | 36.3
6 | CCCCCCCCCCOC1C(C(C)OCCCN(C)C)OC2OC3(CCCCC3)OC21 (stereo not given) | 29.8 | 21.8 | 26.4 | 10.7 | 28 | 25.4 | 25.2 | 32.2 | 38.1 | 25.5 | – | 25.2 | – | 30.5 | 35.8 | –
7 | CCN(CC)CCNC(=O)c1cc2cc(NC(=O)c3cc4cc(NC(=O)c5cc6cc([N+](=O)[O-])ccc6[nH]5)ccc4[nH]3)ccc2[nH]1 | > 100 | – | – | > 100 | > 100 | 67.3 | > 100 | > 100 | > 100 | > 100 | > 100 | > 100 | 14.4 | > 100 | > 100 | > 100
8 | O=C(O)c1ccc(/C=N\N(CCO)C2=NCCN2)cc1 | > 100 | > 100 | > 100 | > 100 | – | > 100 | > 100 | – | > 100 | > 100 | > 100 | > 100 | > 100 | > 100 | > 100 | –
9 | O=S(=O)(Nc1nc(-c2cc(O)c(O)c(O)c2)cs1)c1ccc(Cl)cc1Cl | 44.9 | 73.9 | 40.1 | 33.6 | 35.5 | 41.5 | 33.4 | 69 | > 100 | > 100 | 31.1 | > 100 | – | 46.2 | 53.6 | > 100
10 | COC(=O)Nc1nc2ccc(NS(=O)(=O)c3ccc(F)cc3)cc2[nH]1 | > 100 | 7.45 | > 100 | > 100 | > 100 | > 100 | > 100 | 54.2 | > 100 | > 100 | 74.7 | > 100 | – | > 100 | 9.66 | > 100
11 | CC[C@@]1(O)C(=O)OCc2c1cc1n(c2=O)Cc2c-1nc1ccccc1c2/C=N\NC(=O)C(N)=O | > 100 | > 100 | > 53.9 | 3.72 | 17.5 | – | > 100 | > 73.5 | – | 9.65 | > 100 | > 100 | – | > 100 | > 100 | 9.81
12 | CC(=O)C1C(=O)C(=O)N(c2ccc([N+](=O)[O-])cc2Cl)C1=O (stereo not given) | > 100 | > 100 | > 100 | > 100 | > 100 | > 100 | > 100 | > 100 | > 100 | > 100 | > 100 | > 100 | – | > 100 | > 100 | –
13 | Nc1ccc(S(=O)(=O)c2ccc(N=[N+]([O-])c3ccc(S(=O)(=O)c4ccc(N)cc4)cc3)cc2)cc1 | > 78.1 | – | > 100 | > 100 | > 100 | > 100 | > 100 | > 100 | 92.2 | > 72.3 | > 100 | > 100 | > 100 | > 45.9 | > 74.7 | > 85.1
14 | CN(C)Cc1cc(C(=O)/C=C/c2c(F)cccc2Cl)cc(CN(C)C)c1O | 27.5 | 29.1 | 16.2 | 18.5 | 25.3 | 24.1 | 36.2 | 75.7 | 30.8 | 61.5 | 30.4 | 29.5 | – | 23.5 | 50.2 | 21
